Reference: the supplement of paper PMC6045584
± gives the standard deviation of the averaged measurements.

Experiments:
AFATINIB = compound: CN(C)C/C=C/C(=O)Nc1cc2c(Nc3ccc(F)c(Cl)c3)ncnc2cc1O[C@H]1CCOC1 [AFATINIB]; assay: surviving fraction relative to DMSO-only wells; higher = less growth inhibition; settings: exposure time: 5 days
Method in brief: (§1)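 Lines were retained only if, across three screens, replicate Pearson r was >0.7 and median Z' was >0.3. Viability was measured as CellTiter-Glo luminescence and reported as surviving fraction relative to the median of DMSO-only wells. Readings followed 10 minutes at room temperature, after log-phase tumour cells seeded at 250–500 per well in 384-well plates had been exposed, from 24 hours after seeding, continuously for five days to inhibitors at 0.5, 1, 5, 10, 50, 100, 500 and 1000 nM.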

SNX-5422 = compound: CC1(C)CC(=O)c2c(C(F)(F)F)nn(-c3ccc(C(N)=O)c(N[C@H]4CC[C@H](OC(=O)CN)CC4)c3)c2C1 [SNX-5422]; assay: as above; settings: exposure time: 5 days
Method in brief: as §1

Row | Test System | surviving fraction (AFATINIB; 0.5 nM) | surviving fraction (AFATINIB; 1 nM) | surviving fraction (AFATINIB; 5 nM) | surviving fraction (AFATINIB; 10 nM) | surviving fraction (AFATINIB; 50 nM) | surviving fraction (AFATINIB; 100 nM) | surviving fraction (AFATINIB; 500 nM) | surviving fraction (AFATINIB; 1000 nM) | surviving fraction (SNX-5422; 0.5 nM) | surviving fraction (SNX-5422; 1 nM) | surviving fraction (SNX-5422; 5 nM) | surviving fraction (SNX-5422; 10 nM) | surviving fraction (SNX-5422; 50 nM) | surviving fraction (SNX-5422; 100 nM) | surviving fraction (SNX-5422; 500 nM) | surviving fraction (SNX-5422; 1000 nM)
1 | MFM223 BREAST | 1.13 ± 0.076 | 1.16 ± 0.11 | 1.13 ± 0.097 | 1.13 ± 0.031 | 1.11 ± 0.086 | 1.04 ± 0.1 | 0.803 ± 0.059 | 0.365 ± 0.021 | 1.16 ± 0.032 | 1.1 ± 0.029 | 1.06 ± 0.025 | 1.08 ± 0.074 | 0.254 ± 0.014 | 0.152 ± 0.016 | 0.111 ± 0.0051 | 0.116 ± 0.0013
2 | MHM BONE | 1.022 ± 0.0067 | 1 ± 0.018 | 1.02 ± 0.016 | 1 ± 0.03 | 1.07 ± 0.028 | 1.03 ± 0.016 | 0.961 ± 0.041 | 0.883 ± 0.022 | 1.01 ± 0.018 | 1.04 ± 0.015 | 1.04 ± 0.023 | 1.06 ± 0.013 | 1.02 ± 0.015 | 0.635 ± 0.047 | 0.186 ± 0.0096 | 0.149 ± 0.0076
3 | NCIH441 LUNG | 1.15 ± 0.086 | 1.11 ± 0.042 | 1.1 ± 0.1 | 1.04 ± 0.04 | 1.03 ± 0.042 | 0.851 ± 0.11 | 0.686 ± 0.027 | 0.409 ± 0.017 | 0.996 ± 0.029 | 0.976 ± 0.036 | 0.972 ± 0.076 | 1.03 ± 0.062 | 0.748 ± 0.093 | 0.748 ± 0.062 | 0.365 ± 0.04 | 0.324 ± 0.019
4 | OS25HAL BONE | 0.966 ± 0.014 | 1.01 ± 0.018 | 1 ± 0.029 | 1 ± 0.044 | 1.03 ± 0.039 | 1.08 ± 0.013 | 1.02 ± 0.03 | 0.855 ± 0.085 | 0.9827 ± 0.0029 | 1.004 ± 0.0087 | 1.03 ± 0.019 | 0.998 ± 0.036 | 0.789 ± 0.12 | 0.257 ± 0.031 | 0.13 ± 0.018 | 0.132 ± 0.023
5 | OSHN BONE | 1.08 ± 0.03 | 1.07 ± 0.031 | 1.09 ± 0.042 | 1.07 ± 0.032 | 1.11 ± 0.032 | 1.11 ± 0.033 | 1.1 ± 0.031 | 1.06 ± 0.019 | 1.1 ± 0.024 | 1.11 ± 0.036 | 1.11 ± 0.012 | 1.1 ± 0.018 | 0.842 ± 0.067 | 0.162 ± 0.0064 | 0.138 ± 0.0047 | 0.136 ± 0.0076
6 | PCI30 HEADNECK | 1.01 ± 0.1 | 0.94 ± 0.073 | 0.616 ± 0.019 | 0.459 ± 0.0087 | 0.4 ± 0.022 | 0.358 ± 0.035 | 0.241 ± 0.063 | 0.064 ± 0.011 | 1.08 ± 0.073 | 1.06 ± 0.086 | 1.13 ± 0.041 | 1.17 ± 0.14 | 0.716 ± 0.05 | 0.316 ± 0.065 | 0.0417 ± 0.0046 | 0.039 ± 0.001
7 | SAOS2 BONE | 1.15 ± 0.11 | 1.21 ± 0.067 | 1.15 ± 0.018 | 1.104 ± 0.0087 | 1.1 ± 0.013 | 1.06 ± 0.089 | 0.603 ± 0.0052 | 0.186 ± 0.034 | 1.15 ± 0.034 | 1.14 ± 0.075 | 1.16 ± 0.029 | 1.15 ± 0.027 | 0.123 ± 0.015 | 0.0737 ± 0.0011 | 0.076 | 0.0853 ± 0.0029
8 | SCC003 HEADNECK | 1.11 ± 0.093 | 1.04 ± 0.045 | 0.941 ± 0.1 | 0.901 ± 0.095 | 0.636 ± 0.056 | 0.557 ± 0.0066 | 0.518 ± 0.068 | 0.425 ± 0.058 | 1.16 ± 0.017 | 1.15 ± 0.12 | 1.16 ± 0.081 | 1.13 ± 0.054 | 0.608 ± 0.023 | 0.384 ± 0.091 | 0.0973 ± 0.004 | 0.0767 ± 0.0055
9 | SCC36 HEADNECK | 0.926 ± 0.088 | 0.719 ± 0.061 | 0.523 ± 0.037 | 0.457 ± 0.031 | 0.418 ± 0.027 | 0.376 ± 0.029 | 0.264 ± 0.0053 | 0.149 ± 0.017 | 1.05 ± 0.13 | 1.11 ± 0.086 | 1.19 ± 0.13 | 1.19 ± 0.089 | 0.434 ± 0.067 | 0.27 ± 0.041 | 0.0367 ± 0.0064 | 0.039 ± 0.004
10 | SCC47 HEADNECK | 1.05 ± 0.021 | 0.98 ± 0.078 | 0.88 ± 0.11 | 0.707 ± 0.037 | 0.629 ± 0.064 | 0.604 ± 0.034 | 0.546 ± 0.026 | 0.373 ± 0.014 | 1.09 ± 0.084 | 1.17 ± 0.07 | 1.14 ± 0.069 | 1.12 ± 0.048 | 0.483 ± 0.0098 | 0.184 ± 0.015 | 0.0747 ± 0.0047 | 0.071 ± 0.0027
11 | SG27 HEADNECK | 1 ± 0.09 | 0.981 ± 0.035 | 1.04 ± 0.041 | 1 ± 0.14 | 0.883 ± 0.012 | 0.966 ± 0.13 | 0.865 ± 0.093 | 0.831 ± 0.068 | 1.04 ± 0.13 | 1.06 ± 0.13 | 1 ± 0.14 | 1.06 ± 0.079 | 1.68 ± 0.3 | 1.26 ± 0.088 | 0.071 ± 0.017 | 0.0733 ± 0.046
12 | SG28 HEADNECK | 0.907 ± 0.056 | 0.828 ± 0.089 | 0.669 ± 0.083 | 0.523 ± 0.056 | 0.441 ± 0.052 | 0.452 ± 0.057 | 0.342 ± 0.029 | 0.259 ± 0.035 | 1.05 ± 0.11 | 1.12 ± 0.019 | 1 ± 0.076 | 1 ± 0.071 | 0.598 ± 0.042 | 0.299 ± 0.023 | 0.117 ± 0.019 | 0.125 ± 0.015
13 | SG31 HEADNECK | 0.967 ± 0.1 | 0.947 ± 0.046 | 0.62 ± 0.11 | 0.615 ± 0.18 | 0.515 ± 0.12 | 0.471 ± 0.13 | 0.528 ± 0.035 | 0.452 ± 0.054 | 1.03 ± 0.12 | 1.09 ± 0.22 | 1.05 ± 0.096 | 0.876 ± 0.14 | 0.61 ± 0.024 | 0.187 ± 0.029 | 0.0373 ± 0.0076 | 0.0403 ± 0.006
